Experiment [1] concerns APP and PS1 (PS1/γ-secretase complex). The experiment is described as follows: FLIM assay for PS1 loop-APP C-terminus proximity in CHO cells treated with γ-secretase inhibitors. It counts as cell-based, Chinese hamster. The conditions noted are these: WT PS1 CHO cells; donor PS1 loop-FITC, acceptor APP770-CY3; 4 h with DAPT 500 nM or WPE-III-31C 1 μM; non-FRET control 2600 ± 110, untreated 2290 ± 216. As to the method:
(§1) Chinese hamster ovary (CHO) cells stably transfected with APP770 and either wild type PS1 (wt PS1) or Aspartate mutant PS1 (D257A PS1) were grown in OPTI-MEM with 5% fetal bovine serum and appropriate antibiotics (Puromycin or Zeocin, respectively, (Berezovska et al., 2000)).
Cells were fixed and immunostained 24 hrs posttransfection as described previously (Jack, C. et al., Brain Res Mol Brain Res 87: 166-174, 2001). We used a polyclonal C8 antibody (Selkoe, D. et al., Proc Natl Acad Sci USA 85: 7341-7345, 1988) to detect the C-terminus of APP. A monoclonal antibody to the loop region of PS1 (Chemicon, Temecula, Calif.) was used to identify the γ-secretase complex. PS1 N-terminal X81 antibody was a gift from D. Selkoe (Brigham and Women's Hospital, Boston, Mass.); PS1 C-terminal antibody was purchased from R&D Systems, Inc., Minneapolis, Minn.). For FRET/FLIM studies we chose Cy3-labeled goat anti-rabbit as the acceptor fluorophore, and FITC-labeled goat anti-mouse as the donor fluorophore.
Fluorescence Lifetime Imaging Microscopy (FLIM) relies on the observation that fluorescence lifetimes (the time of fluorophore emission after brief excitation, measured in picoseconds) are shorter in the presence of a FRET acceptor. […] We used a high-speed Hamamatsu detector and hardware/software from Becker and Hickl (Berlin, Germany) to measure fluorescence lifetimes on a pixel-by-pixel basis. […]
The following controls were used to establish and validate the FLIM assay: (1) As a negative control, FITC lifetime was measured in the absence of the acceptor. […] (2) As a positive control, FITC lifetime was measured in the presence of an acceptor. […] By contrast, the FITC fluorescence lifetime (FLIM image) within the area where the acceptor was photobleached reverts to a longer lifetime (color-coded as blue), identical to the lifetime of FITC in the absence of an acceptor (as in the negative control, FIG. 7A). […]
If there was no interaction, lifetimes on the order of ˜2600 psec were observed. If FRET was detected, a population with a statistically shorter lifetime (<˜2400 psec) was observed.

The subject of a further experiment is APP and PS1. The experiment is described as follows: Photobleach dequenching FRET assay between APP and PS1. Type of experiment: cell-based, Chinese hamster. As to the method: Fluorescence Resonance Energy Transfer (FRET) measurements were made using a BioRad1024 confocal microscope mounted on a Nikon Eclipse TE300 inverted Microscope. A krypton-argon laser was used to excite FITC and Cy3 (excitation wavelengths at 488 and 568 nm, respectively). FRET was measured using a method developed for laser scanning confocal microscopy (McLean, P. J. et al., J Biol Chem 275: 8812-8816, 2000; Kinoshita, A. et al., J Neurosci 21: 8354-8361, 2001). The amount of FRET was calculated as a percent increase in donor (FITC) fluorescence intensity after photobleaching the acceptor (Cy3) in a small part of the cell (˜8×8 μm). This ratio was then normalized to the percent change in FITC fluorescence intensity in a non-bleached area of the cell. The percent change in fluorescence intensity was compared to the null hypothesis value of 1.0 by one-group t-tests.
FRET arises when donor and acceptor molecules are <10 nm apart. […] A small area within the cell was photobleached at 568 nm (acceptor only), and FITC fluorescence intensity (at 488 nm) was measured before and after photobleaching.
Treatment with γ-secretase inhibitors (or Asp mutations in PS1) prevents processing of substrates at γ-secretase site. […] This was also true for the D257A PS1 mutation; we observed 25.9±11% (n=8, P<0.05) increase in FITC-fluorescence intensity, compared to a non-FRET control.

In the next experiment the test system is Aβ secretion. Nature of the experiment: Aβ production after DAPT treatment (sister cultures). Type of experiment: cell-based, Chinese hamster. As to the method:
as §1
We investigated whether APP and PS1 interactions would still be observed if γ-secretase function was inhibited.

The subject of experiment [2] is full-length APP, BACE1 and APP CTFs. Nature of the experiment: Western blot of full-length APP, BACE1 and APP CTFs in N2a cells transfected with human APP751. It counts as cell-based, mouse. As to conditions: 1 μM DAPT. As to the method:
For the Western Blot analysis, the cells were lysed in 1% Triton X-100 and electrophoresed in 10-20% SDS-polyacrylamide Tris-Glycine gels. The immunoblotting was performed using the APP C8 antibody (Selkoe, D. J. et al., Proc. Natl. Acad. Sci. USA 85, 7341-7345, 1988), mouse actin (Sigma-Aldrich) or rabbit BACE1 (Calbiochem), followed by detection with ECL reagent (Perkin Elmer, Boston, Mass.). Bands on films were quantitated (Odyssey software, LI-COR, Nebraska) and the values normalized to actin expression.
We further examined whether NSAIDs lead to a decrease in γ-secretase activity. Inhibition of γ-secretase activity leads to accumulation of C99 and C83 (APP CTFs) and decreased release of AICD. Mouse N2a neuroblastoma cells were transfected with human APP751, and were treated with different NSAIDs and a Western blot was performed for full-length APP and APP CTFs (FIG. 16A). […] Next we asked whether NSAIDs alter generation of AICD and examined the effects of NSAIDs on the ability of APP-Gal4 to be cleaved by γ-secretase, releasing the Gal4-AICD fragment which activates a Gal4-dependent, artificially expressed, luciferase plasmid (Cao, X. et al., Science 293: 115-120, 2001). […]
(In general: Immunoblotting shows a protein as a band on a membrane.)

On to `C[C@H](NC(=O)Cc1cc(F)cc(F)c1)C(=O)N[C@H](C(=O)OC(C)(C)C)c1ccccc1` [DAPT], for which the “FITC Lifetime (psec) mean ± SD” value in experiment [1] is listed as 2416 ± 118 (n = 9) psec. In addition, the “association of APP with PS1 (photobleach FRET, FIG. 10)” value with APP and PS1 (DAPT-treated cells) is given as “does not prevent close association of APP with PS1”. The “FRET: percent increase in FITC fluorescence intensity after photobleaching Cy3” value in the experiment with APP and PS1 (wt PS1/APP770 cells, DAPT treatment, untreated 11.6±3%) worked out at 19.8±2%. Also, the Aβ secretion result with Aβ secretion is recorded as “significant decrease”. Further, the “APP CTFs (Western blot)” value in experiment [2] is given as “accumulation of APP CTFs”.
